Consider eleven molecules from US5324747A, “N-substituted anilines, inhibitors of phospholipases A2” (Hoffmann-La Roche Inc., priority 1992, dated 1994).

Assay [1] deals with Croton Oil Mouse Ear Edema. Kind of assay: Croton Oil Mouse Ear Edema Test. Particulars: topical, coapplied, 6 hours. Type of assay: in vivo, CD-1 mice.
Description: Twenty five μl of a 1% croton oil solution [dissolved in a mixture of pyridine/water/diethyl ether at a ratio of 5/20/75 (croton oil vehicle)] are applied to the outer side of the right ear of 3-4 week old made CD-1 mice (8 animals per group). The test compounds are dissolved directly in the 1% croton oil solution at various concentrations and coapplied. Control animals receive 25 μl of croton oil vehicle on the right ear. Biopsy punches are removed at 6 hours from the right ear of the animals using a 6 mm skin trephine (Roboz, Washington, D.C.) and the wet weight of the ear punches is determined. The weight of the biopsy punches is a measure of ear inflammation, primarily edema. The data are expressed as percent inhibition relative to control groups.
The next assay has as its system PLA2 Rat Paw Edema. As to the kind of experiment: Phospholipase A2 Rat Paw Edema. The assay is classed as in vivo, Lewis rats. Particulars: Rattus norvegicus; 2 hr; 30 mg/kg; read-out: % Inhib of PLA2 Rat Paw Edema 2 hr (30 mg/kg). As to the method:
Phospholipase A2 Rat Paw Edema
Representation compounds of the invention were tested in rats to determine their ability to inhibit the acute inflammatory response induced by the injection of snake venom phospholipase A2. Test compounds are administered intraperitoneally or orally to groups of seven Lewis rats (≈200 gm) 1 hr prior to phospholipase A2 administration. The test compounds are dissolved in dimethyl sulfoxide for intraperitoneal administration and dissolved or suspended in Labrafil M-1944CS for oral administration. At 0 hr, 5 ug (10 units) of purified phospholipase A2 from Naja naja venom (Sigma Chem. Co.) dissolved in 0.1 mL of pyrogen free saline is injected subplantarly into the right hind paw to elicit the inflammatory response. The volume (in mL) of the right hind paw is measured by immersion of the paw to the level of the lateral malleolus in an aqueous plethysmometer immediately prior to the injection of phospholipase A2 and then at 0.5, 2 and 4 hr after phospholipase A2 injection. The paw edema is calculated by subtracting the zero time reading from the readings taken after injection. The percent change of the edema volume from the vehicle treated control is calculated to determine the activity of the test compound. Statistical analysis of the mean paw edema values of the control versus the treated groups is performed using Student's t-test. Significance of changes from mean value for vehicle-treated animals (*p<0.05, **p<0.01, ***p<0.001, ns/not significant).

The target of a further assay is T1, HSF-PLA2 (Homo sapiens, UniProt P14555).
T1 construct: extracellular enzyme obtained from human synovial fluid (HSF-PLA2); from tissue; host or cells: pooled human synovial fluid, added at 0.1% (v/v)
T1 sequence (P14555 21-144): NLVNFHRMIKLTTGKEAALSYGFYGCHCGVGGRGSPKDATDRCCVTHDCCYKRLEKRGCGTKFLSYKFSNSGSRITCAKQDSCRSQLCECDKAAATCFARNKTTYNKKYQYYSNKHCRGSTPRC
Kind of assay: Assay for Inhibition of HSF-PLA2 In Vitro. Type of assay: biochemical. Particulars: for IC50: read-out: Inhib of HSF-PLA2 IC50; for inhibition at 1 µM: read-out: Inhib of HSF-PLA2, % inhibition. The gist of the method: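 Extracellular PLA2 isolated from human synovial fluid, incubated 30 min at 37 °C with 14C-labelled phospholipid substrate in duplicate. Lipids were chloroform-extracted, and released 14C-oleic acid was separated from substrate by silica TLC; a no-enzyme control was run in each experiment.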

On to `CCCCCCCCCCCCCCCCCCOc1cc(OCC(=O)O)cc(N(CC(=O)O)CC(=O)O)c1` [Example 58c, N-[3-(carboxymethoxy)-5-(octadecyloxy)phenyl]-N-(carboxymethyl)glycine], for which the “% Inhib of Croton Oil Mouse Ear Edema (1 mg)” value (“% Inhib” below) in assay [1] is listed as 0%. For the same molecule, in the assay with PLA2 Rat Paw Edema, the inhibition in vivo at 30 mg/kg is 39%. The 50% inhibitory concentration (IC50) at HSF-PLA2 amounted to 2800 nM.

As for `CCCCCCCCCCCCCCCCCCOc1cc(OCCOc2ccc3ccccc3c2)cc(N(CC(=O)O)CC(=O)O)c1` [Example 58h, N-(carboxymethyl)-N-[3-[2-(2-naphthalenyloxy)ethoxy]-5-(octadecyloxy)phenyl]glycine], in assay [1], the “% Inhib” value was 3%. The inhibition in vivo at 30 mg/kg with PLA2 Rat Paw Edema was 31%. For the same molecule, the IC50 at HSF-PLA2 came out at 50 nM.

For `CCCCCCCCCCCCCCCCCCOc1cc(OCCCOc2cccc(OC)c2)cc(N(CC(=O)O)CC(=O)O)c1` [Example 58j, N-(carboxymethyl)-N-[3-[3-(3-methoxyphenoxy)propoxy]-5-(octadecyloxy)phenyl]glycine], the “% Inhib” value in assay [1] worked out at 28%. In addition, the inhibition in vivo at 30 mg/kg with PLA2 Rat Paw Edema is 57%. Further, at HSF-PLA2, the IC50 came to 60 nM.

For the molecule `CCCCCCCCCCCCCCCCCCOc1cc(OCCCOc2ccc(OC)cc2)cc(N(CC(=O)O)CC(=O)O)c1` [Example 58k, N-(carboxymethyl)-N-[3-[3-(4-methoxyphenoxy)propoxy]-5-(octadecyloxy)phenyl]glycine], the “% Inhib” value in assay [1] stood at 85%. Moreover, in the assay with PLA2 Rat Paw Edema, the inhibition in vivo at 30 mg/kg came out at 0%. Also, the IC50 at HSF-PLA2 was determined as 50 nM.

Consider `CCCCCCCCCCCCCCCCCCOc1cc(OCCCOc2ccc(O)cc2)cc(N(CC(=O)O)CC(=O)O)c1` [Example 58l, N-(carboxymethyl)-N-[3-[3-(4-hydroxyphenoxy)propoxy]-5-(octadecyloxy)phenyl]glycine], for which, in assay [1], the “% Inhib” value is 76%. Moreover, the inhibition in vivo at 30 mg/kg in the assay with PLA2 Rat Paw Edema was determined as 53%. In addition, the inhibition at 1 µM at HSF-PLA2 amounted to 81%.

On to `CCCCCCCCCCCCCCCCCCOc1cc(OCCCOc2ccc(C(=O)OC)cc2)cc(N(CC(=O)O)CC(=O)O)c1` [Example 58o, N-(carboxymethyl)-N-[3-[3-[4-(methoxycarbonyl)phenoxy)propoxy]-5-(octadecyloxy)phenyl]glycine], for which the “% Inhib” value in assay [1] is given as 30%. In addition, the inhibition in vivo at 30 mg/kg in the assay with PLA2 Rat Paw Edema was determined as 0%. At HSF-PLA2, the IC50 turned out to be 100 nM.

On to `CCCCCCCCCCCCCCCCCCOc1cc(OCCCCC(=O)O)cc(N(CC(=O)O)CC(=O)O)c1` [Example 65, N-[3-(4-Carboxybutoxy)-5-(octadecyloxy)phenyl]-N-(carboxymethyl)glycine], for which, in assay [1], the “% Inhib” value turned out to be 91%. For the same molecule, the inhibition in vivo at 30 mg/kg in the assay on PLA2 Rat Paw Edema was found to be 35%. On HSF-PLA2, the IC50 amounted to 860 nM.

For `CCCCCCCCCCCCCCCCCCOc1cc(C(=O)OC)cc(N(CC(=O)O)CC(=O)O)c1` [Example 69, N-(Carboxymethyl)-N-[3-(methoxycarbonyl)-5-(octadecyloxy)phenyl]glycine], the “% Inhib” value in assay [1] amounted to 22%. In addition, the inhibition in vivo at 30 mg/kg with PLA2 Rat Paw Edema amounted to 57%. The IC50 at HSF-PLA2 came to 100 nM.

For the molecule `CCCCCCCCCCCCCCOc1cc(C(=O)OC)cc(N(CC(=O)O)CC(=O)O)c1` [Example 69a, N-(carboxymethyl)-N-[(3-methoxycarbonyl)-5-(tetradecyloxy)phenyl]glycine], the “% Inhib” value in assay [1] is 71%. In addition, the inhibition in vivo at 30 mg/kg in the assay with PLA2 Rat Paw Edema worked out at 12%. For the same molecule, the inhibition at 1 µM on HSF-PLA2 was found to be 52%.

With `CCCCCCCCCCCCCCOc1cc(C(=O)O)cc(N(CC(=O)O)CC(=O)O)c1` [Example 69b, N-[3-carboxy-5-(tetradecyloxy)pyhenyl]-N-(carboxymethyl)glycine], in assay [1], the “% Inhib” value is given as 72%. The inhibition in vivo at 30 mg/kg in the assay with PLA2 Rat Paw Edema worked out at 4%. In addition, the inhibition at 1 µM at HSF-PLA2 amounted to 18%.

For the molecule `CCCCCCCCCCOc1cc(C(=O)O)cc(N(CC(=O)O)CC(=O)O)c1` [Example 69d, N-[3-carboxy-5-(decyloxy)phenyl]-N-(carboxymethyl)glycine], the “% Inhib” value in assay [1] was 63%. For the same molecule, in the assay on PLA2 Rat Paw Edema, the inhibition in vivo at 30 mg/kg was 0%. Besides, the inhibition at 1 µM at HSF-PLA2 was 7%.

The term IC50 denotes the concentration needed to halve the response being measured. Usually inhibition stands for the relative decrease from the control value, in per cent.
